pEC50: −log10 of the molar value.
Assays:
[1] = tested on: peripheral blood lymphocytes; experiment: Blood lymphocyte depletion in vivo; conditions: rats, p.o., after 6 h
Experimental: B. In Vivo: Blood Lymphocyte Depletion
A compound of formula I or the vehicle is administered orally by gavage to rats. Tail blood for hematological monitoring is obtained on day −1 to give the baseline individual values, and at 2, 6, 24, 48 and 72 hours after application. In this assay, the compounds of formula I deplete peripheral blood lymphocytes when administered at a dose of 0.03 to 3 mg/kg. For example, following results are obtained: depletion of peripheral blood lymphocytes by more than 50%.

[2] = target: T1, human S1P receptor EDG-8 (S1P5) (Homo sapiens, UniProt Q9H228); experiment: S1P receptor profiling, GTP[γ-35S] binding SPA; assay type: biochemical; design: key to S1P5 mode of action: Agon = agonist; conditions: for pEC50: membranes of transfected CHO or RH7777 cells
T1 construct: expressed in transfected cells
T1 sequence (Q9H228 whole entry): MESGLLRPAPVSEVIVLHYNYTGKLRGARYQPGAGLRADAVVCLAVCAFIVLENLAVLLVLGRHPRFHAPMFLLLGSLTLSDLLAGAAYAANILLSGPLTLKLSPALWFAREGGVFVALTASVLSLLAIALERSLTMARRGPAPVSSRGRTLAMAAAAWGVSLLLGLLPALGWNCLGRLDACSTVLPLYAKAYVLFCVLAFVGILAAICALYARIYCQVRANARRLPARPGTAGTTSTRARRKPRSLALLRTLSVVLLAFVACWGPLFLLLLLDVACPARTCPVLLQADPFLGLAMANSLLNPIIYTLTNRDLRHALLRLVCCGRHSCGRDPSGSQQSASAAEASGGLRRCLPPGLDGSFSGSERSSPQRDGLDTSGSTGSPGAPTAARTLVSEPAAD
Experimental: (§1) Sphingosine-1-phosphate (S1P) Receptor Profiling
(§2) Agonist activities of compounds are tested on the human S1P receptors EDG-1 (S1P1), EDG-3 (S1P3), EDG-5 (S1P2), EDG-6 (S1P4) and EDG-8 (S1P5). […] The assay technology used is SPA (scintillation proximity based assay). Briefly, DMSO dissolved compounds are serially diluted and added to SPA-bead (Amersham-Pharmacia) immobilised SIP receptor expressing membrane protein (10-20 μg/well) in the presence of 50 mM Hepes, 100 mM NaCl, 10 mM MgCl2, 10 μM GDP, 0.1% fat free BSA and 0.2 nM GTP [γ-^35S] (1200 Ci/mmol). After incubation in 96 well microtiterplates at RT for 120 min, unbound GTP [γ-^35S] is separated by a centrifugation step. Luminescence of SPA beads triggered by membrane bound GTP [γ-^35S] is quantified with a TOPcount plate reader (Packard). EC50s are calculated using standard curve fitting software. In this assay, the compounds of formula I have a binding affinity to S1P1 receptor <50 nM.

[3] = target: T2, human S1P receptor EDG-3 (S1P3) (Homo sapiens, UniProt Q99500); experiment: S1P receptor profiling, GTP[γ-35S] binding SPA; assay type: biochemical; design: key to S1P3 mode of action: Agon = agonist; conditions: for pEC50: membranes of transfected CHO or RH7777 cells
T2 construct: expressed in transfected cells
T2 sequence (Q99500 whole entry): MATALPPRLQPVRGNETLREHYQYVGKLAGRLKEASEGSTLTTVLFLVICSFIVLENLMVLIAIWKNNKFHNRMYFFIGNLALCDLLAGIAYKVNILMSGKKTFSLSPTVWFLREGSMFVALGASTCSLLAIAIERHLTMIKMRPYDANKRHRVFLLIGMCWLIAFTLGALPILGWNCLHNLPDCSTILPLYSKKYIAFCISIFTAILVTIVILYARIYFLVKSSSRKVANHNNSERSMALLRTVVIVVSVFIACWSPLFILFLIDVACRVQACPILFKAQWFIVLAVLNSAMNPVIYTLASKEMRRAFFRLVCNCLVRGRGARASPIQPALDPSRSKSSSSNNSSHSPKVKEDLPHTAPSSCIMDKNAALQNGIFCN
Experimental: as §1, §2

[4] = target: T3, human S1P receptor EDG-1 (S1P1) (Homo sapiens, UniProt P21453); experiment: S1P receptor profiling, GTP[γ-35S] binding SPA; assay type: biochemical; design: key to S1P1 mode of action: Agon = agonist; conditions: for pEC50: membranes of transfected CHO or RH7777 cells
T3 construct: expressed in transfected cells
T3 sequence (P21453 whole entry): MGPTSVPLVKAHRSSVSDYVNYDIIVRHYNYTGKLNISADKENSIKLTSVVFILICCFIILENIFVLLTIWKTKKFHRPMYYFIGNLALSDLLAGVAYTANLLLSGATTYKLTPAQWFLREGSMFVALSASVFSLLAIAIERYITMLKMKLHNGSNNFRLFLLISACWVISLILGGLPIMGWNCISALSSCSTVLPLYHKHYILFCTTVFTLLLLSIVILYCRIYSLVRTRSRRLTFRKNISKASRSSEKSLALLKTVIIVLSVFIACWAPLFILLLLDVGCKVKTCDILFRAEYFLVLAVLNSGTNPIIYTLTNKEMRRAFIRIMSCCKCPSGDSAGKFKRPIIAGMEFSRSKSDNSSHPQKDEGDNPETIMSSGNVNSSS
Experimental: as §1, §2

[5] = target: T4, human S1P receptor EDG-6 (S1P4) (Homo sapiens, UniProt O95977); experiment: S1P receptor profiling, GTP[γ-35S] binding SPA; assay type: biochemical; design: key to S1P4 mode of action: Agon = agonist; conditions: for pEC50: membranes of transfected CHO or RH7777 cells
T4 construct: expressed in transfected cells
T4 sequence (O95977 1-384): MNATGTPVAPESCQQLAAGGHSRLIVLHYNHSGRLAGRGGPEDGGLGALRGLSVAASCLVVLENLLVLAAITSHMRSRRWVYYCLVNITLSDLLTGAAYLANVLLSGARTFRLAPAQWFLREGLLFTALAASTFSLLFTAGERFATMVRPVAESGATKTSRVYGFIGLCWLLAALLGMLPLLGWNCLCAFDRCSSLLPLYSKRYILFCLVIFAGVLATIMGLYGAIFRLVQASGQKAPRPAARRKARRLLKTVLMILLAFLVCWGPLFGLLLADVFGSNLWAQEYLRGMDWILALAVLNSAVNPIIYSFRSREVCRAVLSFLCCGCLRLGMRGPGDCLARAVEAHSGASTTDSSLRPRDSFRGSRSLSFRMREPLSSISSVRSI
Experimental: as §1, §2

SMILES | dose giving depletion of peripheral blood lymphocytes by more than 50% [1] [mg/kg] | S1P5 mode of action [2] | pEC50 [2] | S1P3 mode of action [3] | pEC50 [3] | S1P1 mode of action [4] | pEC50 [4] | S1P4 mode of action [5] | pEC50 [5]
C[C@H](O)[C@](C)(N)CCc1ccc(OCCCCCc2ccccc2)cc1 [Example 13, (2S,3R)-3-Amino-3-methyl-5-[4-(5-phenyl-pentyloxy)-phenyl]-pentan-2-ol] | 0.5 | – | – | – | – | – | – | – | –
C[C@@H](O)[C@](C)(N)CCc1ccc(OCCCCc2ccccc2)cc1 [Example 14, (2R,3R)-3-Amino-3-methyl-5-[4-(4-phenyl-butoxy)-phenyl]-pentan-2-ol] | 0.1 | – | – | – | – | – | – | – | –
CCCCCCCOc1ccc(CC[C@@](C)(N)[C@@H](C)OP(=O)(O)O)cc1 [Example 18, Phosphoric acid mono-[(1R,2R)-2-amino-4-(4-heptyloxy-phenyl)-1,2-dimethyl-butyl]ester] | – | Agon | 9.13 | Agon | 8.34 | Agon | 9.29 | Agon | 9.15
CCCCCCCOc1ccc(CC[C@@](C)(N)[C@@H](C)O)cc1 [Example 1, (2R,3R)-3-Amino-5-(4-heptyloxy-phenyl)-3-methyl-pentan-2-ol] | 0.07 | – | – | – | – | – | – | – | –
CCCCCCCOc1ccc(CC[C@@](C)(N)[C@H](C)OP(=O)(O)O)cc1 [Example 19, Phosphoric acid mono-[(1S,2R)-2-amino-4-(4-heptyloxy-phenyl)-1,2-dimethyl-butyl]ester] | – | Agon | 9.82 | Agon | 8.85 | Agon | 10.15 | Agon | 9.40
C[C@H](O)[C@](C)(N)CCc1ccc(OCCCCc2ccccc2)cc1 [Example 15, (2S,3R)-3-Amino-3-methyl-5-[4-(4-phenyl-butoxy)-phenyl]-pentan-2-ol] | 0.6 | – | – | – | – | – | – | – | –
CCCCCOc1ccc2cc(CC[C@@](C)(N)[C@@H](C)O)ccc2c1 [Example 12, (2R,3R)-3-Amino-5-(6-pentyloxy-naphthalen-2-yl)-3-methyl-pentan-2-ol] | 0.4 | – | – | – | – | – | – | – | –
C[C@@H](O)[C@](C)(N)CCc1ccc(OCCc2ccc(-c3ccccc3)cc2)cc1 [Example 17, (2R,3R)-3-Amino-5-[4-(2-biphenyl-4-yl-ethoxy)-phenyl]-3-methyl-pentan-2-ol] | 0.2 | – | – | – | – | – | – | – | –
CCCCCOc1ccc2cc(CC[C@@](C)(N)[C@@H](C)OP(=O)(O)O)ccc2c1 [Example 20, Phosphoric acid mono-[(1R,2R)-2-amino-1,2-dimethyl-4-(6-pentyloxy-naphthalen-2-yl)-butyl]ester] | – | Agon | 9.54 | Agon | 8.07 | Agon | 9.89 | Agon | 9.17

From US7928093B2, “Amino-propanol derivatives” (Novartis AG, priority 2004, dated 2011)
